Source: patent US20120164154A1, “METHOD FOR INCREASING INSULIN SENSITIVITY AND FOR TREATING AND PREVENTING TYPE 2 DIABETES” (priority 2002, published 2012)

Experiments:
isolated soleus muscle = test: Basal and insulin-stimulated 2-deoxyglucose uptake in isolated soleus muscle; set-up: species or system mice; conditions: 0.1 m-unit of insulin/ml, 2 h preincubation, 2-deoxyglucose uptake 15 min
Protocol: (A) Representative immunoblot of GLUT4 protein expression along with combined densitometric analysis. Muscle from 3 SCD1+/+ and 3 SCD1−/− mice were pooled. Plasma membranes were prepared as described in Example 1. Equal amount of protein was separated by SDS-PAGE and immunoblotted with GLUT4 antibody. Experiment was repeated three times. Data are shown as means±SD. *P<0.05 vs controls. Nitrocellulose membrane was stripped and reprobed with GAPDH antibody to ensure equal loading of the protein. (B) Glucose uptake measured in vivo in soleus and gastrocnemius muscles. […] The 2-deoxyglucose uptake was calculated as the difference between the total muscle radioactivity and the radioactivity of the muscle extracellular space measured using [1-^3H] mannitol. […]
Determination of plasma membrane GLUT4 levels, glucose uptake and glucose oxidation. Muscle plasma membranes were prepared from muscle of SCD1−/− and SCD1+/+ mice and GLUT4 levels were determined as described in Agote, M. et al. (2001) Am. […] The scintillation cocktail was added and radioactivity was counted in a liquid scintillation counter. The 2-deoxyglucose (2-DG) uptake was calculated as the difference between the total muscle radioactivity and the radioactivity of the muscle extracellular space. […] Glucose oxidation was determined in thin slices (20-30 mg) of gastrocnemius muscle as described in Baque, S. et al. (2001) Am. […]

Insulin tolerance test = format: in vivo; conditions: SCD1-/- mice compared with wild-type mice
Source text: Animals and Diets. SCD1−/− mice in SV129 background were generated and genotyped as described in Miyazaki, M. et al. (2001) J. Nutr. 131, 2260-2268. The wild-type (SCD1+/+), heterozygous (SCD1+/−) and homozygous (SCD1−/−) mice are housed and bred in a pathogen-free barrier facility of the Department of Biochemistry (University of Wisconsin, Madison) operating at room temperature in a 12-h light/12-h dark cycle. The breeding of these animals was in accordance with the protocols approved by the animal care research committee of the University of Wisconsin. At 3 weeks of age, the mice were fed ad libitum a standard laboratory chow diet or a high-fat diet for 23 weeks. The high-fat diet contains 195 g/kg casein, 3 g/kg DL-methionine, 377 g/kg sucrose, 150 g/kg corn starch, 153 g/kg anhydrous milkfat, 10 g/kg corn oil, 1.5 g/kg cholesterol, 60.067 g/kg cellulose, 35 g/kg mineral mix AIN-76 (170915), 4 g/kg calcium carbonate, 10 g/kg vitamin mix Teklad (40060), 1.2 g/kg choline bitartrate, and 0.033 g/kg ethoxyquin (antioxidant). The weight of each mouse within each group was measured weekly; the data are presented as means±SD (n=8, P<0.001). The glucose tolerance and insulin tolerance were determined as described in Stoehr, J. P. et al. (2000) Diabetes 49, 1946-1954.

insulin
insulin-mediated glucose uptake (fold) (isolated soleus muscle; isolated soleus muscle from SCD1+/+ mice): 1.6 fold
insulin-mediated glucose uptake (fold) (isolated soleus muscle; isolated soleus muscle from SCD1-/- mice): 2.1 fold
glucose lowering effect of insulin (Insulin tolerance test): greater in the SCD1−/− mice than wild-type mice
